Like-named read-outs stand apart in the source and are kept apart here.
Legend:
CYP3A4/5 = experiment: In vitro CYP inhibition (direct and time-dependent) in human liver microsomes; type: in vitro ADME
CYP1A2 = experiment: Induction of CYP enzymes in human hepatocytes; conditions: for Relative Effectiveness ± SD Based on CYP Activity / Relative Effectiveness ± SD Based on CYP mRNA: percent of positive control
Method: (§1) In vitro induction of CYP mRNA (CYPs 1A2, 2C8, 2C9 and 3A4) or enzyme activity (CYPs 1A2, 2C19 and 3A4) was assessed in human hepatocytes.

CYP3A4 [1] = experiment: Induction of CYP enzymes in human hepatocytes; conditions: for Relative Effectiveness ± SD Based on CYP Activity / Relative Effectiveness ± SD Based on CYP mRNA: percent of positive control
Method: as §1

[2] = Study 1 Cohort 2: single dose entrectinib alone or with rifampin, plasma pharmacokinetics; conditions: for AUCinf / Cmax / t1/2 / half-life: geometric mean (geometric CV); for M5/Entrectinib ratio, AUCinf / M5/Entrectinib ratio, Cmax: arithmetic mean (CV)
Method: All doses of study medication were administered at the study center.

CYP2B6 [3] = target: T1, CYP2B6 (Homo sapiens, UniProt P20813); experiment: In vitro CYP inhibition in human liver microsomes; type: in vitro ADME; set-up: purchased Corning-Gentest
T1 sequence (P20813 1-491): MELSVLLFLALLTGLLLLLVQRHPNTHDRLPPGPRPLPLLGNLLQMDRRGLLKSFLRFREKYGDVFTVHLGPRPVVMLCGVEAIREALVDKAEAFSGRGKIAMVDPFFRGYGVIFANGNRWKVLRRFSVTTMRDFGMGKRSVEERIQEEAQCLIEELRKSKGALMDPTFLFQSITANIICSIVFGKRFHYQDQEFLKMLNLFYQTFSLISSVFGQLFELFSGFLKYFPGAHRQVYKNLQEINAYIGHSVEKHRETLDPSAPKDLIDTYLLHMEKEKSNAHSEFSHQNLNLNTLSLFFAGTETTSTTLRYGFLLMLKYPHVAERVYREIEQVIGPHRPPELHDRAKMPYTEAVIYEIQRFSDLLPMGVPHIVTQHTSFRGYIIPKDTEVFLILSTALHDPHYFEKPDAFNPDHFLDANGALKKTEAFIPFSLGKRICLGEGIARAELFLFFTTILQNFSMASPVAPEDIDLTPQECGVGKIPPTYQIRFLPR

CYP2C9 [4] = target: T2, CYP2C9 (Homo sapiens, UniProt P11712); experiment: In vitro CYP inhibition in human liver microsomes; type: in vitro ADME; set-up: purchased Corning-Gentest
CYP2C19 [5] = target: T3, CYP2C19 (Homo sapiens, UniProt P33261); experiment: In vitro CYP inhibition in human liver microsomes; type: in vitro ADME; set-up: purchased Corning-Gentest
CYP2D6 = CYP2D6 (Homo sapiens, UniProt P10635); experiment: In vitro CYP inhibition in human liver microsomes; type: in vitro ADME; set-up: purchased Corning-Gentest
CYP2B6 [6] = target: T1, CYP2B6; experiment: Metabolism by recombinantly expressed CYP enzymes
CYP2C8 = target: T4, CYP2C8 (Homo sapiens, UniProt P10632); experiment: Metabolism by recombinantly expressed CYP enzymes
T4 sequence (P10632 1-490): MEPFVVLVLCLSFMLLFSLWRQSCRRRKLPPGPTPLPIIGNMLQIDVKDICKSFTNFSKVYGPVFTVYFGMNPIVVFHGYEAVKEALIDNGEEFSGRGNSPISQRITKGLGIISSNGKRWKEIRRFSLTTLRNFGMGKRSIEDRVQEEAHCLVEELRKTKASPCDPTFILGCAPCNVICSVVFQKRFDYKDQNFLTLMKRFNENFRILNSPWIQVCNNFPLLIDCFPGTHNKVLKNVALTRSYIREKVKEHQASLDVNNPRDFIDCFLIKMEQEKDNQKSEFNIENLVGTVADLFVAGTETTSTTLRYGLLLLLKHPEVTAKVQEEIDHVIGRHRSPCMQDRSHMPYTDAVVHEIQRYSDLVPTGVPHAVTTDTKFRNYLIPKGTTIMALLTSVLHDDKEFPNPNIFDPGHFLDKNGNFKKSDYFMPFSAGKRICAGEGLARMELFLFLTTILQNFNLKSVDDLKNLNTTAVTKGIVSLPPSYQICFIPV

CYP2C9 [7] = target: T2, CYP2C9; experiment: Metabolism by recombinantly expressed CYP enzymes
CYP2C19 [8] = target: T3, CYP2C19; experiment: Metabolism by recombinantly expressed CYP enzymes; set-up: Entrectinib Metabolism to M5: key to the marks not given beside the values
CYP3A4 [9] = target: CYP3A4 (Homo sapiens, UniProt P08684); experiment: Metabolism by recombinantly expressed CYP enzymes; set-up: key to the marks not given beside the values
CYP3A5 = CYP3A5 (Homo sapiens, UniProt P20815); experiment: Metabolism by recombinantly expressed CYP enzymes; set-up: Entrectinib Metabolism to M5 / M5 Metabolism: key to the marks not given beside the values
[10] = Metabolic profile of entrectinib in human hepatocytes
[11] = Metabolic profile of entrectinib in pooled human liver microsomes
[12] = Entrectinib 600 mg with rifampin 600 mg QD
[13] = Entrectinib 600 mg with rifampin

Chain of CYP3A4 (Homo sapiens, UniProt P08684) (P08684 whole entry): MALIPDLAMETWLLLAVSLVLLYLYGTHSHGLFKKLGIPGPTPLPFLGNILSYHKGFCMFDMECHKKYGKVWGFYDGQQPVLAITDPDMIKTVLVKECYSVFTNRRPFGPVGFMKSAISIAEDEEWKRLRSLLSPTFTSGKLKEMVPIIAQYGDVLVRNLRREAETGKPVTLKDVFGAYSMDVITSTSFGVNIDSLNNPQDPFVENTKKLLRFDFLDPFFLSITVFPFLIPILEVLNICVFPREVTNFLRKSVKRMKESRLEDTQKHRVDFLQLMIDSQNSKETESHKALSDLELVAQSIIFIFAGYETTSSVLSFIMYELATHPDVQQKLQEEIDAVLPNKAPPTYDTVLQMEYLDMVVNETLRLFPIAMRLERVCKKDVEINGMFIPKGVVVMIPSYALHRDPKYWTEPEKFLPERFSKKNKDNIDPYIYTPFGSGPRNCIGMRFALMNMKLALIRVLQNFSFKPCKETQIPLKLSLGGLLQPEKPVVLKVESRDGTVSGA
T3 sequence (P33261 whole entry): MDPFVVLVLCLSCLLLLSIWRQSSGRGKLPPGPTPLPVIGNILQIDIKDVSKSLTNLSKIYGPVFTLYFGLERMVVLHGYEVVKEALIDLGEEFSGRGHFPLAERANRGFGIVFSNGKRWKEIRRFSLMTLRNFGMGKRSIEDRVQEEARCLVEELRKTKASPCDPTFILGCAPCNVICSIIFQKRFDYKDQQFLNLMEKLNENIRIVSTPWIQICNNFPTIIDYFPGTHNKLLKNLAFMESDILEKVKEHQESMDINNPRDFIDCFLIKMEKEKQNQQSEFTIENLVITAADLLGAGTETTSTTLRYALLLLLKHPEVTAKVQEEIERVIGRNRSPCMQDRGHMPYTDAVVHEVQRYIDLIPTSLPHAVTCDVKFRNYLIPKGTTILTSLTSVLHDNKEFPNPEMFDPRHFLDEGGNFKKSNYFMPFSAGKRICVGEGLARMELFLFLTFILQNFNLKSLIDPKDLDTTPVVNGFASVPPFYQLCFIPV
Chain of CYP3A5 (P20815 whole entry): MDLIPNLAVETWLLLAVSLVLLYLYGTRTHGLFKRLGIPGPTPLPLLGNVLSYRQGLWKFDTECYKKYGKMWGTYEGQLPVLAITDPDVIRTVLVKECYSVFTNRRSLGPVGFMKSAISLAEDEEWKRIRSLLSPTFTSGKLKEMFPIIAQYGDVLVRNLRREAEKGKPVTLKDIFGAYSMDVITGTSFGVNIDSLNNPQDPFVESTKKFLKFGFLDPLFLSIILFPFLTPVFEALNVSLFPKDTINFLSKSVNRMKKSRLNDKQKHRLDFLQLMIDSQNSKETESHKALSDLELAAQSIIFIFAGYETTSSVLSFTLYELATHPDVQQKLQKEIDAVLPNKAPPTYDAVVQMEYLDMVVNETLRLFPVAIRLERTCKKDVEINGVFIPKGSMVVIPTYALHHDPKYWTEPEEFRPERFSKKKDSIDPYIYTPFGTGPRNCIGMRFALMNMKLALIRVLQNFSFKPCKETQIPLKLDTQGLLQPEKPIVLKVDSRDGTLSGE
T2 sequence (P11712 whole entry): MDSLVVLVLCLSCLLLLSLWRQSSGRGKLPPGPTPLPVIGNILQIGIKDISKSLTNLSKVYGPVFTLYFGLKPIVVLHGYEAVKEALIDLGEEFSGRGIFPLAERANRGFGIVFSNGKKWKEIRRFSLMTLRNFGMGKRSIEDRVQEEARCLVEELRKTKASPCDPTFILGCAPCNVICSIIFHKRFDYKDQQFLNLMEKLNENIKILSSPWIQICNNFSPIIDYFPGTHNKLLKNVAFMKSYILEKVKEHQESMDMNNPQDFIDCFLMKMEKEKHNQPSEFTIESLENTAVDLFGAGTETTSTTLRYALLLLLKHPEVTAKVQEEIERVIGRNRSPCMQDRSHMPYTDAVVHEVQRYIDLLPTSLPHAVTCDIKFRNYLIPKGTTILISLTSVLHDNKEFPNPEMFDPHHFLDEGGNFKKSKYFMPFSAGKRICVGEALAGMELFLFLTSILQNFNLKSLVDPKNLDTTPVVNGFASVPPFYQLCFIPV
Chain of CYP2D6 (P10635 whole entry): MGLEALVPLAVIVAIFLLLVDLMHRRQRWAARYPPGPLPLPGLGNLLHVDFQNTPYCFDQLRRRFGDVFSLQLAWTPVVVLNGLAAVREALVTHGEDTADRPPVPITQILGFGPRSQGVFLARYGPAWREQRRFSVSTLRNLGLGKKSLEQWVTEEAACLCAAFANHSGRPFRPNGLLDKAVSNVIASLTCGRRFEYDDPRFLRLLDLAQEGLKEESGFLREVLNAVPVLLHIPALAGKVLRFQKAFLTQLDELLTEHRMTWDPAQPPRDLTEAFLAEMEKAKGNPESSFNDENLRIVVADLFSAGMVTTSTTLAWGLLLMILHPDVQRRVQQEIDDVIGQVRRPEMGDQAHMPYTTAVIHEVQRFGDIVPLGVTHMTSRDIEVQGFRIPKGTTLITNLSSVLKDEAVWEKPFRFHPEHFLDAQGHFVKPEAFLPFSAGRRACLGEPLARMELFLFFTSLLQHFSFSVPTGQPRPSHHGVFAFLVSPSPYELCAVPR

O=C(Nc1n[nH]c2ccc(Cc3cc(F)cc(F)c3)cc12)c1ccc(N2CCNCC2)cc1NC1CCOCC1 [M5]
IC50 (CYP3A4/5; human liver microsomes, read-out: IC50): > 10 µM
Relative Effectiveness ± SD Based on CYP Activity (CYP1A2; M5 0.5 µM): 0.575% ±0.657
Relative Effectiveness ± SD Based on CYP mRNA (CYP1A2; M5 0.5 µM): 0.22% ±0.23
Relative Effectiveness ± SD Based on CYP Activity (CYP1A2; M5 2.5 µM): 1.30% ±1.4
Relative Effectiveness ± SD Based on CYP mRNA (CYP1A2; M5 2.5 µM): 1.22% ±0.87
Relative Effectiveness ± SD Based on CYP Activity (CYP1A2; M5 10 µM): 0.445% ±0.27
Relative Effectiveness ± SD Based on CYP mRNA (CYP1A2; M5 10 µM): 1.70% ±0.15
Relative Effectiveness ± SD Based on CYP Activity (CYP3A4 [1]; M5 0.5 µM): 1.25% ±1.17
Relative Effectiveness ± SD Based on CYP mRNA (CYP3A4 [1]; M5 0.5 µM): 1.16% ±1.47
Relative Effectiveness ± SD Based on CYP Activity (CYP3A4 [1]; M5 2.5 µM): 4.61% ±3.06
Relative Effectiveness ± SD Based on CYP mRNA (CYP3A4 [1]; M5 2.5 µM): 5.9% ±5.01
Relative Effectiveness ± SD Based on CYP Activity (CYP3A4 [1]; M5 10 µM): 5.42% ±4.45
Relative Effectiveness ± SD Based on CYP mRNA (CYP3A4 [1]; M5 10 µM): 16.5% ±11.2
impact on the mRNA expression or activity of CYP3A4 (CYP3A4 [1]; human hepatocytes): no significant impact
AUCinf ([2]; Entrectinib 600 mg alone, single dose, healthy subjects, fasted): 11,000 (44%) nM•h
M5/Entrectinib ratio, AUCinf ([2]; Entrectinib 600 mg alone): 0.337 (56%)
M5/Entrectinib ratio, Cmax ([2]; Entrectinib 600 mg alone): 0.234 (59%)
Cmax ([2]; Entrectinib 600 mg alone): 383 nM
t1/2 ([2]; Entrectinib 600 mg alone): 33.8 (12%) h
Tmax ([2]; Entrectinib 600 mg alone, median (minimum, maximum)): 5.0 (4.0, 5.0) h
AUCinf [2, 12]: 1530 (28%) nM•h
Cmax [2, 12]: 108 nM
t1/2 [2, 12]: 31.1 (28%) h
Tmax ([2]; Entrectinib 600 mg with rifampin 600 mg QD, median (minimum, maximum)): 3.0 (2.0, 6.0) h
M5/Entrectinib ratio, AUCinf [2, 13]: 0.187 (28%)
M5/Entrectinib ratio, Cmax [2, 13]: 0.136 (23%)
M5 exposure as share of entrectinib exposure (mean M5/entrectinib ratio for AUCinf) ([2]; entrectinib 600 mg alone): approximately 34%
M5 exposure as share of entrectinib exposure (mean M5/entrectinib ratio for AUCinf) ([2]; entrectinib 600 mg coadministered with rifampin): 19%
mean t1/2 ([2]; following entrectinib alone and with rifampin): 31 to 34 h
IC50 (CYP2B6 [3]): > 10 µM
IC50 (CYP2C9 [4]): > 10 µM
IC50 (CYP2C19 [5]): > 10 µM
IC50 (CYP2D6): > 10 µM
M5 Metabolism (CYP2B6 [6]): -
M5 Metabolism (CYP2C8): -
M5 Metabolism (CYP2C9 [7]): -
M5 Metabolism (CYP2C19 [8]): -
M5 Metabolism (CYP3A4 [9]): +++
M5 Metabolism (CYP3A5): ++
share of entrectinib metabolism [10]: 41%
share of total drug-related material [10]: 12%
share of [14C]entrectinib-derived radioactivity ([11]; human liver microsomes): 28%

CN1CCN(c2ccc(C(=O)Nc3n[nH]c4ccc(Cc5cc(F)cc(F)c5)cc34)c(NC3CCOCC3)c2)CC1 [Entrectinib]
IC50 (CYP3A4/5; human, microsomes): 2 µM
induction of CYP1A2 mRNA or enzyme activity (CYP1A2; human hepatocytes): did not significantly induce
CYP3A4 induction in vitro, in words (CYP3A4 [1]; in vitro): weak CYP3A4 inducer
t1/2 ([2]; Entrectinib 600 mg alone): 16.7 (16%) h
t1/2 [2, 12]: 9.9 (26%) h
decrease of AUCinf ([2]; entrectinib coadministered with rifampin vs alone): 77%
Tmax ([2]; human, in vivo, 600 mg): 2.0 (2.0, 5.0) h
Tmax ([2]; human, in vivo, 600 mg, Tmax): 3.5 h
half-life ([2]; human, in vivo, 600 mg, t1/2, Entrectinib 600 mg alone): 17 h
half-life ([2]; human, in vivo, 600 mg, t1/2, Entrectinib 600 mg with rifampin 600 mg QD): 10 h
IC50 (CYP2B6 [3]): > 10 µM
IC50 (CYP2C9 [4]): > 10 µM
IC50 (CYP2C19 [5]): > 10 µM
IC50 (CYP2D6): > 10 µM
Entrectinib Metabolism to M5 (CYP2B6 [6]): -
Entrectinib Metabolism to other Products (CYP2B6 [6]): -
Entrectinib Metabolism to M5 (CYP2C8): +
Entrectinib Metabolism to other Products (CYP2C8): +
Entrectinib Metabolism to M5 (CYP2C9 [7]): -
Entrectinib Metabolism to other Products (CYP2C9 [7]): -
Entrectinib Metabolism to M5 (CYP2C19 [8]): ++
Entrectinib Metabolism to other Products (CYP2C19 [8]): -
Entrectinib Metabolism to M5 (CYP3A4 [9]): +++
Entrectinib Metabolism to other Products (CYP3A4 [9]): +++
Entrectinib Metabolism to M5 (CYP3A5): ++
Entrectinib Metabolism to other Products (CYP3A5): +
drug metabolized ([10]; after 120 min of incubation): 29%
parent remained ([11]; 60 min incubation, pooled human liver microsomes with NADPH): 47%

From article PMC8763936 (Investigational New Drugs, 2021)
